Biological target: T1, MAL^TIR (Homo sapiens, UniProt P58753)
T1 construct: MAL (residues 79–221); 6xHis; made in house; host or cells: E. coli BL21 (DE3)
Assay: T‐Surf phage library (P8 and P3) selection against MAL^TIR, four rounds, NGS read counts
Type: binding
Details: for P8_MAL Rank (after) / P8_MAL Rank (before): P8 library; for P3_MAL Rank (after) / P3_MAL Rank (before): P3 library; for Population: 4th round of selection against MAL TIR, share of NGS reads
Outline: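 Read counts come from NGS of phage pools after the fourth selection round, barcoded by 20-cycle PCR and filtered for quality ≥30. Each round: phage incubated 1 h at RT on immobilised TIR protein (5 µg mL^−1, BSA-blocked), washed, HCl-eluted and amplified in E. coli TG1.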

[1] = P8_MAL: rank by count after grouping
[2] = P8_MAL: rank by count before grouping
[3] = selection against MAL TIR, rank by count after grouping
[4] = selection against MAL TIR, rank by count before grouping
[5] = selection against MAL, rank after grouping
[6] = selection against MAL, rank before grouping
[7] = 4R selection against MAL, rank after grouping
[8] = 4R selection against MAL, rank before grouping
[9] = P8_MAL pool: P8 T-Surf phage library
[10] = selection against MAL, rank by count after grouping
[11] = selection against MAL, rank by count before grouping
[12] = P3_MAL: rank by count after grouping
[13] = P3_MAL: rank by count before grouping

T1 sequence (P58753 79-221): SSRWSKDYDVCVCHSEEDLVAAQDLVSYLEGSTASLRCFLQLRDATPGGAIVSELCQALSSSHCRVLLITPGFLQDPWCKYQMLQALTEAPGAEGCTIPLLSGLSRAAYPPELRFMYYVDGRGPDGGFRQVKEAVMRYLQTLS

## RNFGNSCVPCWANRR
[1]
  Rank (after): 392
[2]
  Rank (before): 2239

## RNFGVYLFQALANKGI
[1]
  Rank (after): 409
[2]
  Rank (before): 2238

## RNFMAYLFQALAHKGI
[3]
  P8_MAL Rank (after): 202
[4]
  P8_MAL Rank (before): 2241

## RNFMSHLYQGLKNRGIFTF
[5]
  P3_MAL Rank (after): 502
[6]
  P3_MAL Rank (before): 2612

## RNFVADLFPALPNKGI
[5]
  P8_MAL Rank (after): 566
[6]
  P8_MAL Rank (before): 2232

## RNFVADLFQALADKGI
[7]
  P8_MAL Rank (after): 666
[8]
  P8_MAL Rank (before): 2308

## RNFVADLYQALANKGI
[1]
  Rank (after): 131
[2]
  Rank (before): 2186

## RNFVAHLFQALANKAI
[7]
  P8_MAL Rank (after): 667
[8]
  P8_MAL Rank (before): 2233

## RNFVAQLKRALANKAI
[5]
  P8_MAL Rank (after): 499
[6]
  P8_MAL Rank (before): 2310

## RNFVAYLFKALANTGI
[5]
  P8_MAL Rank (after): 526
[6]
  P8_MAL Rank (before): 2219

## RNFVAYLFQALADKGV
[3]
  P8_MAL Rank (after): 273
[4]
  P8_MAL Rank (before): 2198

## RNFVAYLFQALAHKSI
[1]
  Rank (after): 183
[2]
  Rank (before): 2199

## RNFVAYLFQALAKKGS
[7]
  P8_MAL Rank (after): 591
[8]
  P8_MAL Rank (before): 2191

## RNFVAYLFQALAKPA
[1]
  Rank (after): 164
[2]
  Rank (before): 2209

## RNFVAYLFQALANIGI
[9]
  Population: 0.00371%

## RNFVAYLFQALANKSI
[9]
  Population: 0.00309%

## RNFVAYLFQALANTSI
[7]
  P8_MAL Rank (after): 585
[8]
  P8_MAL Rank (before): 2212

## RNFVAYLFQELANKGI
[9]
  Population: 0.00463%

## RNFVAYLFQGLANKVI
[1]
  Rank (after): 427
[2]
  Rank (before): 2195

## RNFVAYLFRALANKGI
[9]
  Population: 0.00371%

## RNFVAYLFRARANKGI
[3]
  P8_MAL Rank (after): 225
[4]
  P8_MAL Rank (before): 2193

## RNFVAYLLQALAHKCI
[1]
  Rank (after): 420
[2]
  Rank (before): 2221

## RNFVAYLLQALANKSI
[1]
  Rank (after): 405
[2]
  Rank (before): 2222

## RNFVAYLVQALAKKGI
[1]
  Rank (after): 160
[2]
  Rank (before): 2225

## RNFVRICFRRWRIKA
[10]
  P8_MAL Rank (after): 687
[11]
  P8_MAL Rank (before): 2235

## RNFWRIFFRRWPIKG
[10]
  P8_MAL Rank (after): 714
[11]
  P8_MAL Rank (before): 2184

## RNIVAYPFQALANIGI
[1]
  Rank (after): 437
[2]
  Rank (before): 2252

## RNLAGLVYDCLTKTGA
[12]
  Rank (after): 407
[13]
  Rank (before): 2606

## RNLGAYLFQALANKGI
[3]
  P8_MAL Rank (after): 254
[4]
  P8_MAL Rank (before): 2246

## RNLLAYLRWAVANTVI
[5]
  P8_MAL Rank (after): 541
[6]
  P8_MAL Rank (before): 2312

## RNLVAYLFQALETKGI
[1]
  Rank (after): 416
[2]
  Rank (before): 2243

## RNLVAYLLQALANKGI
[1]
  Rank (after): 451
[2]
  Rank (before): 2244

## RNLVAYLLQPRANKCI
[7]
  P8_MAL Rank (after): 603
[8]
  P8_MAL Rank (before): 2242

## RNLVAYQFQALPNKGI
[7]
  P8_MAL Rank (after): 658
[8]
  P8_MAL Rank (before): 2245

## RNNFFGHLYHALYRIG
[10]
  P8_MAL Rank (after): 685
[11]
  P8_MAL Rank (before): 2261

## RNNFICHLYQELYRIG
[1]
  Rank (after): 428
[2]
  Rank (before): 2264

## RNNFIGHLYQALYRI
[10]
  P8_MAL Rank (after): 676
[11]
  P8_MAL Rank (before): 2274

## RNNFIGHLYQAPNQSV
[10]
  P8_MAL Rank (after): 699
[11]
  P8_MAL Rank (before): 2283

## RNNFIGHQYQALYRSR
[3]
  P8_MAL Rank (after): 235
[4]
  P8_MAL Rank (before): 2291

## RNNFLGYLYQALYRIG
[7]
  P8_MAL Rank (after): 604
[8]
  P8_MAL Rank (before): 2263

## RNNLMDRLYQALDLLR
[5]
  P8_MAL Rank (after): 545
[6]
  P8_MAL Rank (before): 2298

## RNNYIGHLYQALYRNG
[7]
  P8_MAL Rank (after): 596
[8]
  P8_MAL Rank (before): 2297

## RNSVAYLFQALADKGI
[3]
  P8_MAL Rank (after): 270
[4]
  P8_MAL Rank (before): 2247

## RNVMSHLYQGLQNRGI
[12]
  Rank (after): 441
[13]
  Rank (before): 2614

## RNYVAYLFQALANTGI
[7]
  P8_MAL Rank (after): 579
[8]
  P8_MAL Rank (before): 2250

## RNYVAYLFQALASKGI
[1]
  Rank (after): 407
[2]
  Rank (before): 2249

## RPLKWKEALHQFHSRV
[5]
  P3_MAL Rank (after): 493
[6]
  P3_MAL Rank (before): 2562

## RRLKWKDALHQFHSWV
[12]
  Rank (after): 124
[13]
  Rank (before): 594

## RRLKWKEALHQLYSWV
[7]
  P3_MAL Rank (after): 668
[8]
  P3_MAL Rank (before): 2560

## RRTFLSHLQHHFASKG
P3_MAL pool: P3 T-Surf phage library
  Population: 0.05%
[12]
  Rank (after): 98
[13]
  Rank (before): 98

## RSFRDGLWRLLELSKK
[12]
  Rank (after): 160
[13]
  Rank (before): 3232
